Experimental data published in US20220009918A1, “Chemical Compounds” (GlaxoSmithKline Intellectual Property Development Limited, priority 2018, published 2022).

Target: T1, human H-PGDS (Homo sapiens, UniProt O60760)
T1 construct: Full length human H-PGDS cDNA (Invitrogen Ultimate ORF IOH13026) was amplified by PCR; 6-His (N); TEV protease cleavage site (N); made in house; host or cells: E. coli BL21 (DE3*) for H-PGDS; Sf9 insect cells (baculovirus) for COX-2
Test: H-PGDS RapidFire high throughput mass spectrometry assay
Assay type: biochemical
Settings: inhibition of conversion of PGH2 to PGD2 by H-PGDS; mean pIC50; read-out: Potency Range (mean pIC50) (converted)
Experimental: H-PGDS RapidFire™ High Throughput Mass Spectrometry Assay
The H-PGDS RapidFire™ mass spectrometric assay monitors conversion of prostaglandin H2 (PGH2) to prostaglandin D2 (PGD2) by haematopoietic prostaglandin D synthase (H-PGDS). In the assay format described here, the substrate (PGH2) is formed in situ by the action of cyclooxygenase-2 on arachidonic acid. This first step is set up to be fast, and generates a burst of PGH2 at ˜10 μM. The PGH2 is then further converted to PGD2 by the H-PGDS enzyme. […] Plates are then read on the RapidFire™ high throughput solid phase extraction system (Agilent) which incorporates a solid phase extraction step coupled to a triple quadrupole mass spectrometer (AB SCIEX). Relative levels of PGD2 and PGF2α, which acts as a surrogate for substrate, are measured and a percent conversion calculated. Inhibitors are characterised as compounds which lower the conversion of PGH2 to PGD2.
Full length human H-PGDS cDNA (Invitrogen Ultimate ORF IOH13026) was amplified by PCR with the addition of a 5′ 6-His tag and TEV protease cleavage site. The PCR product was digested with NdeI and XhoI and ligated into pET22b+ (Merck Novagen®). Expression was carried out in E. coli strain BL21 (DE3*) using auto-induction Overnight Express™ Instant TB medium (Merck Novagen®) supplemented with 1% glycerol. The culture was first grown at 37° C. and the temperature was reduced to 25° C. when OD600 reached 2.0. Cells were harvested by centrifugation after a further 18 hours. 10 g of E. coli cell pellet was suspended to a total volume of 80 mL in lysis buffer (20 mM Tris-Cl pH 7.5, 300 mM NaCl, 20 mM imidazole, 5 mM p-mercaptoethanol, 10% glycerol). 1 mg/mL protease inhibitors (Protease Inhibitor Cocktail Set III, Merck Calbiochem®) and 1 mg/mL lysozyme were added to the cell suspension. The suspension was then sonicated for 5 min (UltraSonic Processor VCX 750, Cole-Parmer Instrument Co.) with a micro probe (50% amplitude, 10 sec on/off) and then centrifuged at 100,000 g for 90 minutes (at 4° C.). The supernatant was loaded onto a Ni-NTA HiTrap column (5 mL, GE Healthcare, pre-equilibrated in lysis buffer). The column was washed with 10 column volumes of lysis buffer and eluted with lysis buffer containing 500 mM imidazole. The pooled protein peak fractions were concentrated using a 10 kDa centrifugal filter at 3500 g and 4° C. (Amicon Ultra-15 centrifugal filter unit with Ultracel-10 membrane from Millipore). Further purification of the concentrated protein was carried out using gel filtration chromatography on a HiLoad 26/600 Superdex 75 preparative grade column (GE Healthcare Life Sciences) using 50 mM Tris pH 7.5, 50 mM NaCl, 1 mM dithiothreitol, 1 mM MgCl2. Fractions containing the protein were pooled, concentrated as described above, and stored at −80° C.
The full length human COX-2 gene (accession number L15326) was amplified by PCR to generate an EcoRI—HindIII fragment containing an in-frame FLAG tag. This was subcloned into pFastBac 1 (Invitrogen). The COX-2 FLAG plasmid was recombined into the baculovirus genome according to the BAC-to-BAC protocol described by Invitrogen. Transfection into Spodoptera frugiperda (Sf9) insect cells was performed using Cellfectin (Invitrogen), according to the manufacturer's protocol. Super Sf9 cells were cultured in EX420 media (SAFC Biosciences) to a density of approximately 1.5×10^6 cells/mL within a wave bioreactor. Recombinant virus was added at a Multiplicity of Infection (MOI) of 5 and the culture was allowed to continue for 3 days. Cells were harvested using a continuous feed centrifuge run at 2500 g at a rate of approximately 2 L/min with cooling. The resultant cell slurry was re-centrifuged in pots (2500 g, 20 min, 4° C.) and the cell paste was stored at −80° C. […]

T1 sequence (O60760 whole entry): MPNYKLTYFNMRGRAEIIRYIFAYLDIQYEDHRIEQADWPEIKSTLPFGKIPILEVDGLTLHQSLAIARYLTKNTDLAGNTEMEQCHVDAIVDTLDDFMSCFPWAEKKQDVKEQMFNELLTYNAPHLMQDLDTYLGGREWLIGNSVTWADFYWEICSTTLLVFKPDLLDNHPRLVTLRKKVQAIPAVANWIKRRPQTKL

Compound | IC50 [nM]
Cc1ccnc(-c2ncc(C(=O)N[C@H]3CCNC3=O)s2)c1 [Example 47, (S)-2-(4-Methylpyridin-2-yl)-N-(2-oxopyrrolidin-3-yl)thiazole-5-carboxamide] | 10.2 to 100
Cc1cc(-c2ncc(C(=O)N[C@H]3CCNC3=O)s2)cc(C(F)F)c1 [Example 48, (S)-2-(3-(Difluoromethyl)-5-methylphenyl)-N-(2-oxopyrrolidin-3-yl)thiazole-5-carboxamide] | 10.2 to 100
O=C(N[C@H]1C(=O)N[C@@H]2CCC[C@@H]21)c1cnc(-c2cc(F)cc(Cl)c2)s1 [Example 50, 2-(3-Chloro-5-fluorophenyl)-N-((3R,3aS,6aR)-2-oxooctahydrocyclopenta[b]pyrrol-3-yl)thiazole-5-carboxamide] | 102 to 1000
O=C(N[C@@H]1C(=O)N[C@H]2CCC[C@H]21)c1cnc(-c2cc(F)cc(Cl)c2)s1 [Example 51, 2-(3-Chloro-5-fluorophenyl)-N-((3S,3aR,6aS)-2-oxooctahydrocyclopenta[b]pyrrol-3-yl)thiazole-5-carboxamide] | 1.02 to 10
O=C(N[C@@H]1C(=O)N[C@H]2COC[C@H]21)c1cnc(-c2cc(F)cc(Cl)c2)s1 [Example 53, 2-(3-Chloro-5-fluorophenyl)-N-((3S,3aR,6aR)-2-oxohexahydro-1H-furo[3,4-b]pyrrol-3-yl)thiazole-5-carboxamide] | 10.2 to 100
O=C(N[C@H]1C(=O)N[C@@H]2COC[C@@H]21)c1cnc(-c2cc(F)cc(Cl)c2)s1 [Example 54, 2-(3-Chloro-5-fluorophenyl)-N-((3R,3aS,6aS)-2-oxohexahydro-1H-furo[3,4-b]pyrrol-3-yl)thiazole-5-carboxamide] | 10.2 to 100
O=C(N[C@@H]1CC2(COC2)NC1=O)c1cnc(-c2cc(F)cc(Cl)c2)s1 [Example 56, (R)-2-(3-Chloro-5-fluorophenyl)-N-(6-oxo-2-oxa-5-azaspiro[3.4]octan-7-yl)thiazole-5-carboxamide] | 102 to 1000
O=C(N[C@H]1CC2(COC2)NC1=O)c1cnc(-c2cc(F)cc(Cl)c2)s1 [Example 57, (S)-2-(3-Chloro-5-fluorophenyl)-N-(6-oxo-2-oxa-5-azaspiro[3.4]octan-7-yl)thiazole-5-carboxamide] | 1.02 to 10
O=C(N[C@H]1C(=O)N[C@H]2CCC[C@H]21)c1cnc(-c2cc(F)cc(Cl)c2)s1 [Example 59, 2-(3-Chloro-5-fluorophenyl)-N-((3R,3aR,6aS)-2-oxooctahydrocyclopenta[b]pyrrol-3-yl)thiazole-5-carboxamide] | 102 to 1000
O=C(N[C@@H]1C(=O)N[C@@H]2CCC[C@H]12)c1cnc(-c2cc(F)cc(Cl)c2)s1 [Example 60, 2-(3-Chloro-5-fluorophenyl)-N-((3S,3aS,6aR)-2-oxooctahydrocyclopenta[b]pyrrol-3-yl)thiazole-5-carboxamide] | 10.2 to 100
C[C@@H]1C[C@@H](NC(=O)c2cnc(-c3cc(F)cc(Cl)c3)s2)C(=O)N1 [Example 61, 2-(3-Chloro-5-fluorophenyl)-N-((3R,5R)-5-methyl-2-oxopyrrolidin-3-yl)thiazole-5-carboxamide] | 102 to 1000
C[C@@H]1C[C@H](NC(=O)c2cnc(-c3cc(F)cc(Cl)c3)s2)C(=O)N1 [Example 62, 2-(3-Chloro-5-fluorophenyl)-N-((3S,5R)-5-methyl-2-oxopyrrolidin-3-yl)thiazole-5-carboxamide] | 10.2 to 100
CN1CC[C@H](NC(=O)c2cnc(-c3cc(F)cc(Cl)c3)s2)C1=O [Example 64, (S)-2-(3-Chloro-5-fluorophenyl)-N-(1-methyl-2-oxopyrrolidin-3-yl)thiazole-5-carboxamide] | 10.2 to 100
CN(C(=O)c1cnc(-c2cc(F)cc(Cl)c2)s1)[C@H]1CCNC1=O [Example 66, (S)-2-(3-Chloro-5-fluorophenyl)-N-methyl-N-(2-oxopyrrolidin-3-yl)thiazole-5-carboxamide] | 1020 to 10000
CN(C(=O)c1cnc(-c2cc(F)cc(Cl)c2)s1)[C@@H]1CCNC1=O [Example 67, (R)-2-(3-Chloro-5-fluorophenyl)-N-methyl-N-(2-oxopyrrolidin-3-yl)thiazole-5-carboxamide] | > 10000
